In patent US20240148425A1, “COSMETIC COMPOSITION INTENDED FOR THE TREATMENT OF SKIN HYPERPIGMENTATION AND TREATMENT METHOD USING SAID COMPOSITION” (priority 2021, published 2024):

Experiments:
[1] = system: IL-1β marker in keratinocytes; test: IL-1β irritation marker in keratinocytes after cryogenic gas sequences; format: cell-based; conditions: +14° C. with 4 successive oscillations vs subzero dose (EC16, −16° C.), same level of keratinocyte viability
Text: Finally, on the other constituent cells of the epidermis (keratinocytes), experiments have shown that oscillations within an above-zero temperature range caused a lesser effect on certain irritation markers compared to the application of a single cryogenic gas within a subzero temperature range while causing an identical reduction in the viability of the keratinocytes (see FIG. 3). […] Likewise, since the irritation is directly related to the mortality induced by keratinocytes, it could have been thought that for an identical reduction in viability, the irritation would be identical.
FIG. 3 is a graph showing the variation over time of the (IL-1β) marker of the irritation for keratinocytes subjected to two sequences making it possible to achieve the same level of viability, a sequence (EC16) located in a subzero temperature range (−16° C.) and the other sequence (EC14) in an above-zero temperature range (+14° C.).
The development of the invention has given rise to numerous experiments relating to the optimization of atomization sequences. These sequences were tested on cell culture models in order to determine, in particular, their incidence on the cell viability of the melanocytes and keratinocytes. The main markers of irritation were also measured.

keratinocytes = test: viability of keratinocytes by protein assay; format: cell-based; conditions: certain temperatures, especially +05° C.; patent attributes it to quiescence bias
Text: Other tests conducted within the scope of the development of the invention have shown that an experiment bias existed in the measurement of the viability of the keratinocytes by protein assay.

[2] = system: actinic lentigines on the back of hands; conditions: cooling cycle of 3 to 5 seconds; biopsies 3 weeks after the treatment; cited from earlier work
skin pigmentation = conditions: brief 5-second cooling by atomizing liquid nitrogen at −196° C., margin 1 to 5 mm beyond the wound; cited from earlier work

Description for melanocytes: By way of example, when the viability of the melanocytes is compared between the application of a dose of atomized cryogenic gas making it possible to reach a target temperature of −10° C. (sequence referenced EC-10) on the epidermis from its normal starting temperature (34° C.) in an environment at room temperature (23° C.), and the application of a dose making it possible to reach a temperature of 0° C.
Therefore, experiments (cell cultures-in vitro) were conducted in the context of the invention to determine the effects of different temperatures (+10, +5, 0, −5, −10, −15 and 16° C.) on the mortality of the melanocytes. […] A control group of cells was tested at +23° C. After 24 h of treatment, the cell mortality was quantified by assaying the expression of the proteins (see FIG. 1).

Compound	irritant effect (IL-1β marker) [1]	viability of the keratinocytes by protein assay (keratinocytes)	decrease of viability of the melanocytes relative to the control group (melanocytes) [%]	reduction of the viability of the melanocytes (melanocytes)	mortality rate of melanocytes versus control group (melanocytes; EC+10 sequence (+10° C.), control at +23° C.)	viability of the melanocytes, sequence EC-10 (−10° C.) compared with EC00 (0° C.) (melanocytes; EC-10 vs EC00, start 34° C., room temperature 23° C.)	skin pigmentation in biopsies [2]	pigment change of skin (skin pigmentation)
CC(F)F [cryogenic gas, 1,1-difluoroethane]	less than that observed with a dose making it possible to achieve subzero temperatures	a reduction in the viability of the keratinocytes	40	about 40%	very different from that obtained for the control group	remains the same	–	–
N#N [liquid nitrogen]	–	–	–	–	–	–	reduces skin pigmentation	hypopigmentation persists
